In US10208019B2, “GLP-1 receptor agonists and uses thereof” (Pfizer Inc., priority 2016, dated 2019) one finds EC50 and Emax data, which are given here for 23 compounds.

Assay [1] deals with human GLP-1R (Homo sapiens, UniProt P43220, G168S). Briefly: CHO GLP-1R Clone H6—Assay 1: HTRF cAMP cell-based functional agonist assay (high GLP-1R density). The settings on record: for EC50: read-out: Assay 1 EC50, CHO GLP-1R Clone H6, cAMP HTRF, geometric mean; for Emax: read-out: Assay 1 Emax (%), CHO GLP-1R Clone H6, relative to saturating concentration of full agonist GLP-1 (1 μM), arithmetic mean. (TR-FRET usually uses a lanthanide donor and a delayed reading to cut background.)
Method: GLP-1R-mediated agonist activity was determined with a cell-based functional assay utilizing an HTRF (Homogeneous Time-Resolved Fluorescence) cAMP detection kit (cAMP HI Range Assay Kit; CisBio cat #62AM6PEJ) that measures cAMP levels in the cell. The method is a competitive immunoassay between native cAMP produced by the cells and exogenous cAMP labeled with the dye d2. The tracer binding is visualized by a mAb anti-cAMP labeled with Cryptate. The specific signal (i.e. energy transfer) is inversely proportional to the concentration of cAMP in either standard or experimental sample.
The human GLP-1R coding sequence (NCBI Reference Sequence NP_002053.3, including naturally-occurring variant Gly168Ser) was subcloned into pcDNA3 (Invitrogen) and a cell line stably expressing the receptor was isolated (designated Clone H6).
Cells were removed from cryopreservation, re-suspended in 40 mL of Dulbecco's Phosphate Buffered Saline (DPBS-Lonza Cat #17-512Q) and centrifuged at 800×g for 5 min at 22° C. The cell pellet was then re-suspended in 10 mL of growth medium [DMEM/F12 1:1 Mixture with HEPES, L-Gln, 500 mL (DMEM/F12 Lonza Cat #12-719F), 10% heat inactivated fetal bovine serum (Gibco Cat #16140-071), 5 mL of 100× Pen-Strep (Gibco Cat #15140-122), 5 mL of 100× L-Glutamine (Gibco Cat #25030-081) and 500 μg/mL Geneticin (G418) (Invitrogen #10131035)]. A 1 mL sample of the cell suspension in growth media was counted on a Becton Dickinson ViCell to determine cell viability and cell count per mL. The remaining cell suspension was then adjusted with growth media to deliver 2000 viable cells per well using a Matrix Combi Multidrop reagent dispenser, and the cells were dispensed into a white 384 well tissue culture treated assay plate (Corning 3570). The assay plate was then incubated for 48 hours at 37° C. in a humidified environment in 5% carbon dioxide.
Varying concentrations of each compound to be tested (in DMSO) were diluted in assay buffer (HBSS with Calcium/Magnesium (Lonza/BioWhittaker cat #10-527F)/0.1% BSA (Sigma Aldrich cat #A7409-1L)/20 mM HEPES (Lonza/BioWhiftaker cat #17-737E) containing 100 μM 3-isobutyl-1-methylxanthin (IBMX; Sigma cat #15879). The final DMSO concentration is 1%.
After 48 hours, the growth media was removed from the assay plate wells, and the cells were treated with 20 μL of the serially diluted compound in assay buffer for 30 minutes at 37° C. in a humidified environment in 5% carbon dioxide. Following the 30 minute incubation, 10 μL of labeled d2 cAMP and 10 μL of anti-cAMP antibody (both diluted 1:20 in cell lysis buffer; as described in the manufacturer's assay protocol) were added to each well of the assay plate. The plates were then incubated at room temperature and after 60 minutes, changes in the HTRF signal were read with an Envision 2104 multi-label plate reader using excitation of 330 nm and emissions of 615 and 665 nm. Raw data were converted to nM cAMP by interpolation from a cAMP standard curve (as described in the manufacturer's assay protocol) and the percent effect was determined relative to a saturating concentration of the full agonist GLP-17-36 (1 μM) included on each plate. EC50 determinations were made from agonist dose-response curves analyzed with a curve fitting program using a 4-parameter logistic dose response equation.

For assay [2], the target named is human GLP-1R (Homo sapiens (Human), UniProt P43220, L260F). The experiment in a line: CHO GLP-1R Clone C6—Assay 2: HTRF cAMP cell-based functional agonist assay (low GLP-1R density). To be noted: for EC50: CHO GLP-1R Clone C6, cAMP HTRF, geometric mean; for Emax: CHO GLP-1R Clone C6, relative to saturating concentration of full agonist GLP-1 (1 μM), arithmetic mean, read-out: Assay 2 Emax (%).
Method: GLP-1R-mediated agonist activity was determined with a cell-based functional assay utilizing an HTRF (Homogeneous Time-Resolved Fluorescence) cAMP detection kit (cAMP HI Range Assay Kit; Cis Bio cat #62AM6PEJ) that measures cAMP levels in the cell. The method is a competitive immunoassay between native cAMP produced by the cells and exogenous cAMP labeled with the dye d2. The tracer binding is visualized by a mAb anti-cAMP labeled with Cryptate. The specific signal (i.e. energy transfer) is inversely proportional to the concentration of cAMP in either a standard or an experimental sample.
The human GLP-1R coding sequence (NCBI Reference Sequence NP_002053.3, including naturally-occurring variant Leu260Phe) was subcloned into pcDNA5-FRT-TO and a clonal CHO cell line stably expressing a low receptor density was isolated using the Flp-In™ T-Rex™ System, as described by the manufacturer (ThermoFisher).
Cells were removed from cryopreservation, re-suspended in 40 mL of Dulbecco's Phosphate Buffered Saline (DPBS-Lonza Cat #17-512Q) and centrifuged at 800×g for 5 min at 22° C. The DPBS was aspirated, and the cell pellet was re-suspended in 10 mL of complete growth medium (DMEM:F12 1:1 Mixture with HEPES, L-Gln, 500 mL (DMEM/F12 Lonza Cat #12-719F), 10% heat inactivated fetal bovine serum (Gibco Cat #16140-071), 5 mL of 100× Pen-Strep (Gibco Cat #15140-122), 5 mL of 100× L-Glutamine (Gibco Cat #25030-081), 700 μg/mL Hygromycin (Invitrogen Cat #10687010) and 15 μg/mL Blasticidin (Gibco Cat #R21001). A 1 mL sample of the cell suspension in growth media was counted on a Becton Dickinson ViCell to determine cell viability and cell count per mL. The remaining cell suspension was then adjusted with growth media to deliver 1600 viable cells per well using a Matrix Combi Multidrop reagent dispenser, and the cells were dispensed into a white 384 well tissue culture treated assay plate (Corning 3570). The assay plate was then incubated for 48 h at 37° C. in a humidified environment (95% O2, 5% CO2)
Varying concentrations of each compound to be tested (in DMSO) were diluted in assay buffer [HBSS with Calcium/Magnesium (Lonza/BioWhittaker cat #10-527F)/0.1% BSA (Sigma Aldrich cat #A7409-1L)/20 mM HEPES (Lonza/BioWhittaker cat #17-737E)] containing 100 μM 3-isobutyl-1-methylxanthin (IBMX; Sigma cat #15879). The final DMSO concentration in the compound/assay buffer mixture is 1%.
After 48 h, the growth media was removed from the assay plate wells, and the cells were treated with 20 μL of the serially diluted compound in assay buffer for 30 min at 37° C. in a humidified environment (95% O2, 5% CO2). Following the 30 min incubation, 10 μL of labeled d2 cAMP and 10 μL of anti-cAMP antibody (both diluted 1:20 in cell lysis buffer; as described in the manufacturer's assay protocol) were added to each well of the assay plate. The plates were then incubated at room temperature and after 60 minutes, changes in the HTRF signal were read with an Envision 2104 multi-label plate reader using excitation of 330 nm and emissions of 615 and 665 nm. Raw data were converted to nM cAMP by interpolation from a cAMP standard curve (as described in the manufacturer's assay protocol) and the percent effect was determined relative to a saturating concentration of the full agonist GLP-1 (1 μM) included on each plate. EC50 determinations were made from agonist dose response curves analyzed with a curve fitting program using a 4-parameter logistic dose response equation.

Molecules are shown by their SMILES.

Chain of human GLP-1R (Homo sapiens, UniProt P43220, G168S) (P43220 24-463 G168S limits assumed): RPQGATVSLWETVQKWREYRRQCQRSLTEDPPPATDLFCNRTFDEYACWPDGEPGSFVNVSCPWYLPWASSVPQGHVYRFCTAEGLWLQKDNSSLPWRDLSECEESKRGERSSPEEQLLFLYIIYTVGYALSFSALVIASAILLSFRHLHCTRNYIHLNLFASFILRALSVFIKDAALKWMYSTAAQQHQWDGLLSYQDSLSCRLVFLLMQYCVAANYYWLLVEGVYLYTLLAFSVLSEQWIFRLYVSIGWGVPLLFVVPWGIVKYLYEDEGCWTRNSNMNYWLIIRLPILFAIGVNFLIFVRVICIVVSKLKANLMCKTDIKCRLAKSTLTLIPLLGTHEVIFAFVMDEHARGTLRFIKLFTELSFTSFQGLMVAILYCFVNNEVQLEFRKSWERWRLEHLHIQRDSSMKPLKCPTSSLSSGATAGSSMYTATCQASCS
Chain of human GLP-1R (Homo sapiens (Human), UniProt P43220, L260F) (P43220 24-463 L260F): as the sequence (P43220 24-463 G168S limits assumed) above, with S145G, L237F counted along it

A word on the EC50: it is the concentration giving half of the maximal effect. Broadly, the Emax is the maximal effect, on the per cent scale that the assay sets. For the compound `C[C@H]1CN(c2cccc(OCc3ccc(Cl)cc3F)n2)CCN1Cc1nc2ccc(C(=O)O)cc2n1Cc1cocn1` [Example 10A-13], in assay [1], the EC50 came to 4.1 nM and the Emax worked out at 67%. For the same compound, in assay [2], the EC50 turned out to be 170 nM and the Emax turned out to be 75%.
Taken in the same sequence, the figures for `C[C@H]1CN(c2cccc(OCc3ccc(C#N)cc3F)n2)CCN1Cc1nc2ccc(C(=O)O)cc2n1Cc1cocn1` [Example 10A-14] were 8.1 nM, 74%, 220 nM and 93%.
The like results for `C[C@H]1CN(c2cccc(OCc3ccc(C#N)cc3F)n2)CCN1Cc1nc2ccc(C(=O)O)cc2n1Cc1ncco1` [Example 10A-15, 2-{[(2S)-4-{6-[(4-cyano-2-fluorobenzyl)oxy]pyridin-2-yl}-2-methylpiperazin-1-yl]methyl}-1-(1,3-oxazol-2-ylmethyl)-1H-benzimidazole-6-carboxylic acid] were, in that order, 1.3 nM, 72%, 27 nM and 87%.
Taken in the same sequence, the figures for `C[C@H]1CN(c2cccc(OCc3ccc(Cl)cc3F)n2)CCN1Cc1nc2ccc(C(=O)O)cc2n1Cc1cnco1` [Example 10A-16, 2-{[(2S)-4-{6-[(4-chloro-2-fluorobenzyl)oxy]pyridin-2-yl}-2-methylpiperazin-1-yl]methyl}-1-(1,3-oxazol-5-ylmethyl)-1H-benzimidazole-6-carboxylic acid] were 1.7 nM, 67%, 45 nM and 83%.
On to `C[C@H]1CN(c2cccc(OCc3ccc(C#N)cc3F)n2)CCN1Cc1nc2ccc(C(=O)O)cc2n1Cc1cnco1` [Example 10A-17], for which, in assay [1], the EC50 was determined as 1.8 nM and the Emax was 77%. In assay [2], the EC50 came out at 59 nM and the Emax worked out at 85%.
Consider `C[C@H]1CN(c2cccc(OCc3ccc(Cl)cc3F)n2)CCN1Cc1nc2ccc(C(=O)O)cc2n1Cc1ncco1` [Example 10A-18, 2-{[(2S)-4-{6-[(4-chloro-2-fluorobenzyl)oxy]pyridin-2-yl}-2-methylpiperazin-1-yl]methyl}-1-(1,3-oxazol-2-ylmethyl)-1H-benzimidazole-6-carboxylic acid], for which the EC50 in assay [1] came out at 1.6 nM; in assay [2] it was 33 nM. Moreover, the Emax in assay [1] and in assay [2] was 78% in each case.
As to `Cc1nnc(Cn2c(CN3CCC(c4cccc(OCc5ccc(Cl)cc5F)n4)CC3)nc3ccc(C(=O)O)cc32)n1C` [Example 10A-20], in assay [1], the EC50 was more than 15000 nM and the Emax came out at 98%. Besides, the EC50 in assay [2] is more than 20000 nM.
For the compound `CCn1cnnc1Cn1c(CN2CCN(c3cccc(OCc4ccc(Cl)cc4F)n3)C[C@@H]2C)nc2ccc(C(=O)O)cc21` [Example 10A-21], in assay [1], the EC50 came out at 18 nM and the Emax stood at 88%. For the same compound, in assay [2], the response was half-maximal at 400 nM (EC50) and the Emax was 100%.
As for `C[C@H]1CN(c2cccc(OCc3ccc(Cl)cc3F)n2)CCN1Cc1nc2ccc(C(=O)O)cc2n1Cc1cnnn1C` [Example 10A-22], the EC50 was 5.7 nM in assay [1] and 100 nM in assay [2]. For the same compound, the Emax in assay [1] was determined as 67%; in assay [2] it was 79%.
The like results for `C[C@H]1CN(c2cccc(OCc3ccc(C#N)cc3F)n2)CCN1Cc1nc2ccc(C(=O)O)cc2n1Cc1cnnn1C` [Example 10A-23] were, in that order, 38 nM, 760 nM, 76% and 91%.
With `N#Cc1ccc(COc2cccc(C3CCN(Cc4nc5ccc(C(=O)O)nc5n4Cc4cnco4)CC3)n2)c(F)c1` [Example 10A-24], in assay [1], the EC50 came to 5.7 nM and the Emax turned out to be 78%. In addition, in assay [2], the EC50 was determined as 130 nM and the Emax stood at 94%.
`C[C@H]1CN(c2cccc(OCc3ccc(C#N)cc3F)n2)CCN1Cc1nc2ccc(C(=O)O)cc2n1Cc1cncn1C` [Example 10A-25]: in assay [1], the EC50 was determined as 1.7 nM and the Emax worked out at 82%. In assay [2], the EC50 stood at 41 nM and the Emax came to 99%.
Consider `COC1(Cn2c(CN3CCC(c4cccc(OCc5ccc(Cl)cc5F)n4)CC3)nc3ccc(C(=O)O)cc32)CCC1` [Example 10A-26, 2-[(4-{6-[(4-chloro-2-fluorobenzyl)oxy]pyridin-2-yl}piperidin-1-yl)methyl]-1-[(1-methoxycyclobutyl)methyl]-1H-benzimidazole-6-carboxylic acid], for which, in assay [1], the EC50 is 7 nM and the Emax came to 59%. In assay [2], the EC50 came to 190 nM and the Emax amounted to 80%.
Taken in the same sequence, the figures for `CCn1cncc1Cn1c(CN2CCC(c3cccc(OCc4ccc(F)cc4F)n3)CC2)nc2ccc(C(=O)O)cc21` [Example 10A-32, 2-[(4-{6-[(2,4-difluorobenzyl)oxy]pyridin-2-yl}piperidin-1-yl)methyl]-1-[(1-ethyl-1H-imidazol-5-yl)methyl]-1H-benzimidazole-6-carboxylic acid] were 0.47 nM, 77%, 5 nM and 94%.
Taken in the same sequence, the figures for `O=C(O)c1ccc2nc(CN3CCN(c4cccc(OCc5ccc(Cl)cc5F)n4)CC3)n(Cc3ncco3)c2c1` [Example 10A-33, 2-[(4-{6-[(4-chloro-2-fluorobenzyl)oxy]pyridin-2-yl}piperazin-1-yl)methyl]-1-(1,3-oxazol-2-ylmethyl)-1H-benzimidazole-6-carboxylic acid] were 1.5 nM, 73%, 24 nM and 91%.
Taken in the same sequence, the figures for `N#Cc1ccc(COc2cccc(N3CCN(Cc4nc5ccc(C(=O)O)cc5n4Cc4ncco4)CC3)n2)c(F)c1` [Example 10A-34, 2-[(4-{6-[(4-cyano-2-fluorobenzyl)oxy]pyridin-2-yl}piperazin-1-yl)methyl]-1-(1,3-oxazol-2-ylmethyl)-1H-benzimidazole-6-carboxylic acid] were 1.5 nM, 80%, 29 nM and 95%.
Turning to `CCn1cncc1Cn1c(CN2CCN(c3cccc(OCc4ccc(C#N)cc4F)n3)CC2)nc2ccc(C(=O)O)cc21` [Example 10A-35, 2-[(4-{6-[(4-cyano-2-fluorobenzyl)oxy]pyridin-2-yl}piperazin-1-yl)methyl]-1-[(1-ethyl-1H-imidazol-5-yl)methyl]-1H-benzimidazole-6-carboxylic acid], in assay [1], the EC50 was 0.3 nM and the Emax came to 93%. Also, in assay [2], the response was half-maximal at 3.8 nM (EC50) and the Emax turned out to be 93%.
For `Cn1cncc1Cn1c(CN2CCN(c3cccc(OCc4ccc(Cl)cc4F)n3)CC2)nc2ccc(C(=O)O)cc21` [Example 10A-36, 2-[(4-{6-[(4-chloro-2-fluorobenzyl)oxy]pyridin-2-yl}piperazin-1-yl)methyl]-1-[(1-methyl-1H-imidazol-5-yl)methyl]-1H-benzimidazole-6-carboxylic acid], in assay [1], the EC50 stood at 0.33 nM and the Emax is 82%. In assay [2], a half-maximal response (EC50) required 13 nM and the Emax is 110%.
Consider `Cn1cncc1Cn1c(CN2CCN(c3cccc(OCc4ccc(C#N)cc4F)n3)CC2)nc2ccc(C(=O)O)cc21` [Example 10A-37, 2-[(4-{6-[(4-cyano-2-fluorobenzyl)oxy]pyridin-2-yl}piperazin-1-yl)methyl]-1-[(1-methyl-1H-imidazol-5-yl)methyl]-1H-benzimidazole-6-carboxylic acid], for which, in assay [1], the EC50 worked out at 3.4 nM and the Emax came to 86%. Besides, in assay [2], a half-maximal effect (EC50) was put at 23 nM and the Emax came out at 110%.
The like results for `O=C(O)c1ccc2nc(CN3CCC(c4cccc(OCc5ccc(Cl)cc5F)n4)CC3)n(Cc3cocn3)c2c1` [Example 10A-41, 2-[(4-{6-[(4-chloro-2-fluorobenzyl)oxy]pyridin-2-yl}piperidin-1-yl)methyl]-1-(1,3-oxazol-4-ylmethyl)-1H-benzimidazole-6-carboxylic acid] were, in that order, 12 nM, 75%, 140 nM and 82%.
Taken in the same sequence, the figures for `O=C(O)c1ccc2nc(CN3CCC(c4cccc(OCc5ccc(Cl)cc5F)n4)CC3)n(Cc3ncco3)c2c1` [Example 10A-42, 2-[(4-{6-[(4-chloro-2-fluorobenzyl)oxy]pyridin-2-yl}piperidin-1-yl)methyl]-1-(1,3-oxazol-2-ylmethyl)-1H-benzimidazole-6-carboxylic acid] were 2.7 nM, 73%, 29 nM and 74%.
Taken in the same sequence, the figures for `N#Cc1ccc(COc2cccc(C3CCN(Cc4nc5ccc(C(=O)O)cc5n4Cc4cnco4)CC3)n2)c(F)c1` [Example 10A-43, 2-[(4-{6-[(4-cyano-2-fluorobenzyl)oxy]pyridin-2-yl}piperidin-1-yl)methyl]-1-(1,3-oxazol-5-ylmethyl)-1H-benzimidazole-6-carboxylic acid] were 4 nM, 64%, 48 nM and 79%.
In the case of `O=C(O)c1ccc2nc(CN3CCC(c4cccc(OCc5ccc(F)cc5F)n4)CC3)n(Cc3cnco3)c2c1` [Example 10A-44, 2-[(4-{6-[(2,4-difluorobenzyl)oxy]pyridin-2-yl}piperidin-1-yl)methyl]-1-(1,3-oxazol-5-ylmethyl)-1H-benzimidazole-6-carboxylic acid], the EC50 in assay [1] is 6 nM; in assay [2], 99 nM. Besides, the Emax was found to be 73% in assay [1] and 81% in assay [2].
